Experimental data published in US20140128385A1 (NOVARTIS AG, priority 2011, published 2014).
Counter-ions that a name gives are not always drawn.

Each molecule was assayed against T1, BACE-2 (Homo sapiens, UniProt Q9Y5Z0) (assay: assay for inhibition of BACE-2).
T1 construct: Recombinant BACE-2 (extracellular domain, expressed in baculovirus and purified using standard methods); made in house
T1 sequence (Q9Y5Z0 63-473 limits assumed): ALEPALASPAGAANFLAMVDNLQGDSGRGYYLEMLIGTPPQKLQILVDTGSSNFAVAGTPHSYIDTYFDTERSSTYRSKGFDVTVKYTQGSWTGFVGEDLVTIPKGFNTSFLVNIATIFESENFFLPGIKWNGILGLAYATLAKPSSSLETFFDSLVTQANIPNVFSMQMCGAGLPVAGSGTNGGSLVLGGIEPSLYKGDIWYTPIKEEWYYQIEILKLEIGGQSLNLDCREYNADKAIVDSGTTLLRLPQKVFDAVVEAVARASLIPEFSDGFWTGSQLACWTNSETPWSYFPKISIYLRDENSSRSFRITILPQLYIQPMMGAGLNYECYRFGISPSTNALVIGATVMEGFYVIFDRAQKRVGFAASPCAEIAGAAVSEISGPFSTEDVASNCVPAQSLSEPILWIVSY
Assay type: biochemical
With `C[C@@]1(c2cc(NC(=O)c3ncc(C(F)F)cc3N)ccc2F)CO[C@@](C)(C(F)(F)F)C(N)=N1` [Example 243, 3-Amino-5-difluoromethyl-pyridine-2-carboxylic acid [3-((3R,6R)-5-amino-3,6-dimethyl-6-trifluoromethyl-3,6-dihydro-2H-[1,4]oxazin-3-yl)-4-fluoro-phenyl]-amide] the IC50 was 11 nM. In the case of `C[C@@]1(c2cccc(NC(=O)c3ccc(Br)cn3)c2)COCC(N)=N1` [Example 3, 5-Bromo-pyridine-2-carboxylic acid [3-((R)-5-amino-3-methyl-3,6-dihydro-2H-[1,4]oxazin-3-yl)-phenyl]-amide hydrochloride], the IC50 is reported as 56 nM. With `NC1=NC(CF)(c2cc(NC(=O)c3ccc(Br)cn3)cnc2Cl)COC1` (stereo not shown) [Example 274, 5-Bromo-pyridine-2-carboxylic acid [5-(5-amino-3-fluoromethyl-3,6-dihydro-2H-[1,4]oxazin-3-yl)-6-chloro-pyridin-3-yl]-amide hydrochloride] the IC50 was 132 nM. `C[C@@]1(c2cc(NC(=O)c3ncc(C#N)cc3Cl)ccc2F)CO[C@@](C)(C(F)(F)F)C(N)=N1` [Example 231, 3-Chloro-5-cyano-pyridine-2-carboxylic acid [3-((3R,6R)-5-amino-3,6-dimethyl-6-trifluoromethyl-3,6-dihydro-2H-[1,4]oxazin-3-yl)-4-fluoro-phenyl]-amide hydrochloride] was tested, and the IC50 was 6 nM. `CC1(c2cccc(NC(=O)c3coc(C(F)(F)F)c3)c2)COCC(N)=N1` (stereo not shown) [Example 23, 5-Trifluoromethyl-furan-3-carboxylic acid [3-(5-amino-3-methyl-3,6-dihydro-2H-[1,4]oxazin-3-yl)-phenyl]-amide hydrochloride] was tested, and the IC50 was > 10000 nM. `Cc1nc(C(=O)Nc2cccc(C3(C)COCC(N)=N3)c2)c(C)o1` (stereo not shown) [Example 10, 2,5-Dimethyl-oxazole-4-carboxylic acid [3-(5-amino-3-methyl-3,6-dihydro-2H-[1,4]oxazin-3-yl)-phenyl]-amide hydrochloride] was tested, and the IC50 was 289 nM. Molecule `NC1=N[C@@](c2cc(NC(=O)c3ncc(F)cc3F)ccc2F)(C(F)F)COC1` [Example 113] has an IC50 of 29 nM. With `COc1cnc(C(=O)Nc2ccc(F)c([C@]3(C(F)F)COCC(N)=N3)c2)c(C)n1` [Example 174, 5-Methoxy-3-methyl-pyrazine-2-carboxylic acid [3-((R)-5-amino-3-difluoromethyl-3,6-dihydro-2H-[1,4]oxazin-3-yl)-4-fluoro-phenyl]-amide hydrochloride] the IC50 was 276 nM. `[2H]c1nc(C(=O)Nc2cc(C3(CF)COCC(N)=N3)ccn2)c(C([2H])([2H])[2H])c([2H])c1Cl` (stereo not shown) [Example 269, 5-{2-[(5-Chloro-4,6-dideutero-3-trideuteromethyl-pyridine-2-carbonyl)-amino]-pyridin-4-yl}-5-fluoromethyl-5,6-dihydro-2H-[1,4]oxazin-3-yl-ammonium acetate] showed an IC50 of 1530 nM. For `Cc1cc(C(N)=S)cnc1C(=O)Nc1cc(C2(CF)COCC(N)=N2)ccn1` (stereo not shown) [Example 271, 5-Fluoromethyl-5-{2-[(3-methyl-5-thiocarbamoyl-pyridine-2-carbonyl)-amino]-pyridin-4-yl}-5,6-dihydro-2H-[1,4]oxazin-3-yl-ammonium trifluoro-acetate], the IC50 was > 10000 nM. For `CCOc1cnc(C(=O)Nc2ccc(F)c([C@]3(C(F)F)COCC(N)=N3)c2)cn1` [Example 171, 5-Ethoxy-pyrazine-2-carboxylic acid [3-((R)-5-amino-3-difluoromethyl-3,6-dihydro-2H-[1,4]oxazin-3-yl)-4-fluoro-phenyl]-amide], the IC50 was 200 nM. Work on `CN1CC(N)=NC(C)(c2cc(NC(=O)c3ccc(Br)cn3)ccc2F)C1=O` (stereo not shown) [Example 186, 5-Bromo-pyridine-2-carboxylic acid [3-(6-amino-2,4-dimethyl-3-oxo-2,3,4,5-tetrahydro-pyrazin-2-yl)-4-fluoro-phenyl]-amide] yielded an IC50 of 9110 nM. With `Cc1ccc(C(=O)Nc2cccc(C3(C)COCC(N)=N3)c2)nc1` (stereo not shown) [Example 27, 5-Methyl-pyridine-2-carboxylic acid [3-(5-amino-3-methyl-3,6-dihydro-2H-[1,4]oxazin-3-yl)-phenyl]-amide hydrochloride] the IC50 was 374 nM. Molecule `NC1=N[C@@](c2cc(NC(=O)c3cnc(OCCF)cn3)ccc2F)(C(F)F)COC1` [Example 136] has an IC50 of 1140 nM. `COCc1cc(Cl)cnc1C(=O)Nc1ccc(F)c([C@]2(C(F)F)COCC(N)=N2)c1` [Example 215, 5-Chloro-3-methoxymethyl-pyridine-2-carboxylic acid [3-((R)-5-amino-3-difluoromethyl-3,6-dihydro-2H-[1,4]oxazin-3-yl)-4-fluoro-phenyl]-amide] was tested, and the IC50 was 11 nM. With `CC(=O)N1CC(N)=NC(c2cc(NC(=O)c3ncc(Br)cc3C)ccc2F)(C(F)F)C1` (stereo not shown) [Example 206, 5-Bromo-3-methyl-pyridine-2-carboxylic acid [3-(4-acetyl-6-amino-2-difluoromethyl-2,3,4,5-tetrahydro-pyrazin-2-yl)-4-fluoro-phenyl]-amide] the IC50 was 4 nM. `CC1(c2cccc(NC(=O)c3cn4ccccc4n3)c2)COCC(N)=N1` (stereo not shown) [Example 8, Imidazo[1,2-a]pyridine-2-carboxylic acid [3-(5-amino-3-methyl-3,6-dihydro-2H-[1,4]oxazin-3-yl)-phenyl]-amide hydrochloride] showed an IC50 of 7230 nM. Molecule `NC1=N[C@@](c2cc(NC(=O)c3ccc(C(F)F)cn3)ccc2F)(C(F)F)COC1` [Example 132] has an IC50 of 180 nM. `NC(=S)c1ccc(C(=O)Nc2cccc(C3(CF)COCC(N)=N3)n2)nc1` (stereo not shown) [Example 263] gave an IC50 of 8660 nM. For `CC1(c2cc(NC(=O)c3ccc(Br)cn3)ccc2F)N=C(N)COCC1(F)F` (stereo not shown) [Example 101], the IC50 was 26 nM. `NC1=NC(CF)(c2cc(NC(=O)c3ccc(Br)cn3)ccc2F)COC1` (stereo not shown) [Example 86] gave an IC50 of 32 nM. Molecule `COc1ccc(C(=O)Nc2ccc(F)c([C@]3(C)CO[C@@](C)(C(F)(F)F)C(N)=N3)c2)nc1` [Example 69] has an IC50 of 1 nM. `N#Cc1ccc(C(=O)Nc2cc(C3(C(F)F)COCC(N)=N3)c(F)cc2F)nc1` (stereo not shown) [Example 82] showed an IC50 of 1230 nM. Molecule `N#Cc1ccc(C(=O)Nc2cccc(C3(C(F)F)COCC(N)=N3)c2)nc1` (stereo not shown) [Example 36] has an IC50 of 910 nM. Work on `N#Cc1ccc(C(=O)Nc2ccc(F)c(C3(C(F)(F)F)CCOCC(N)=N3)c2)nc1` (stereo not shown) [Example 98, 5-Cyano-pyridine-2-carboxylic acid [3-(3-amino-5-trifluoromethyl-2,5,6,7-tetrahydro-[1,4]oxazepin-5-yl)-4-fluoro-phenyl]-amide hydrochloride] yielded an IC50 of 144 nM. Work on `NC1=NC(c2cc(NC(=O)c3ccc(Br)cn3)ccc2F)(C(F)F)COC1` (stereo not shown) [Example 42, 5-Bromo-pyridine-2-carboxylic acid [3-(5-amino-3-difluoromethyl-3,6-dihydro-2H-[1,4]oxazin-3-yl)-4-fluoro-phenyl]-amide hydrochloride] yielded an IC50 of 53 nM. `NC1=N[C@@](c2cc(NC(=O)c3cc4cccn4cn3)ccc2F)(C(F)F)COC1` [Example 163, Pyrrolo[1,2-c]pyrimidine-3-carboxylic acid [3-((R)-5-amino-3-difluoromethyl-3,6-dihydro-2H-[1,4]oxazin-3-yl)-4-fluoro-phenyl]-amide] showed an IC50 of 405 nM. `COc1cnc(C(=O)Nc2ccc(F)c([C@]3(C(F)F)COCC(N)=N3)c2)c(C)c1` [Example 221] showed an IC50 of 65 nM. `COc1ccc(C(=O)Nc2cccc([C@]3(C)COCC(N)=N3)c2)nc1` [Example 30, 5-Methoxy-pyridine-2-carboxylic acid [3-((R)-5-amino-3-methyl-3,6-dihydro-2H-[1,4]oxazin-3-yl)-phenyl]-amide hydrochloride] showed an IC50 of 367 nM. Molecule `CC(C)N1CC(C)(c2cc(NC(=O)c3ccc(Br)cn3)ccc2F)N=C(N)C1=O` (stereo not shown) [Example 194, 5-Bromo-pyridine-2-carboxylic acid [3-(6-amino-4-isopropyl-2-methyl-5-oxo-2,3,4,5-tetrahydro-pyrazin-2-yl)-4-fluoro-phenyl]-amide hydrochloride] has an IC50 of 47 nM. Molecule `COCC(=O)N1CC(N)=NC(c2cc(NC(=O)c3ncc(Br)cc3C)ccc2F)(C(F)F)C1` (stereo not shown) [Example 208, 5-Bromo-3-methyl-pyridine-2-carboxylic acid {3-[6-amino-2-difluoromethyl-4-(2-methoxy-acetyl)-2,3,4,5-tetrahydro-pyrazin-2-yl]-4-fluoro-phenyl}-amide] has an IC50 of 4 nM. For `COc1cc(Br)cnc1C(=O)Nc1cc(C2(C(F)F)COCC(N)=N2)c(F)cc1F` (stereo not shown) [Example 83], the IC50 was 5880 nM. `Cc1nc(C(=O)Nc2cccc(C3(C(F)F)COCC(N)=N3)c2)co1` (stereo not shown) [Example 104] was tested, and the IC50 was 309 nM. Molecule `[2H]C([2H])([2H])Oc1cnc(C(=O)Nc2cc(F)c(F)c([C@]3(C(F)F)COCC(N)=N3)c2)c(Cl)c1` [Example 229, 3-Chloro-5-trideuteromethoxy-pyridine-2-carboxylic acid [3-((R)-5-amino-3-difluoromethyl-3,6-dihydro-2H-[1,4]oxazin-3-yl)-4,5-difluoro-phenyl]-amide] has an IC50 of 73 nM. In the case of `Cc1nc(C(=O)Nc2ccc(F)c([C@]3(C(F)F)COCC(N)=N3)c2)co1` [Example 127], the IC50 is reported as 35 nM. `CC1(c2cccc(NC(=O)C3CCCCC3)c2)COCC(N)=N1` (stereo not shown) [Example 25, Cyclohexanecarboxylic acid [3-(5-amino-3-methyl-3,6-dihydro-2H-[1,4]oxazin-3-yl)-phenyl]-amide hydrochloride] was tested, and the IC50 was > 10000 nM. Molecule `COc1cnc(C(=O)Nc2cccc(C3(C)COCC(N)=N3)c2)cn1` (stereo not shown) [Example 18, 5-Methoxy-pyrazine-2-carboxylic acid [3-(5-amino-3-methyl-3,6-dihydro-2H-[1,4]oxazin-3-yl)-phenyl]-amide hydrochloride] has an IC50 of 1660 nM.
